Reference: patent US20050197350A1, “Novel quinoline, tetrahydroquinazoline, and pyrimidine derivatives and methods of treatment related to the use thereof” (TAISHO PHARMACEUTICAL CO., LTD., priority 2003, published 2005)

Test system: MCH receptors
Assay: MCH receptor activity class (method not given)
Details: class by percent of control at 10^-7 M or IC50

**Q.** How did the class turn out when `CN(C)c1cc(N[C@H]2CC[C@@H](NC(=O)c3cccc(C(=O)c4ccccc4)c3)CC2)nc2ccccc12` [compound 733] was run?
**A.** 3 (Class 3 The value of percent of control at 10^−7 M was more than 60% or the value of IC50 was more than 200 nM.)

**Q.** With `CCSC(C(=O)N[C@H]1CC[C@@H](Nc2cc(N(C)C)c3ccccc3n2)CC1)(c1ccccc1)c1ccccc1` [compound 734] as the molecule, how does the class read?
**A.** 3 (Class 3 The value of percent of control at 10^−7 M was more than 60% or the value of IC50 was more than 200 nM.)

**Q.** Which class does the source give for `CN(C)c1cc(N[C@H]2CC[C@@H](NC(=O)c3ccccc3Sc3ccccc3C#N)CC2)nc2ccccc12` [compound 735] here?
**A.** 3 (Class 3 The value of percent of control at 10^−7 M was more than 60% or the value of IC50 was more than 200 nM.)

**Q.** For `COc1cc(CC(=O)N[C@H]2CC[C@@H](Nc3cc(N(C)C)c4ccccc4n3)CC2)ccc1OCc1ccccc1` [compound 736], which class is on record?
**A.** 3 (Class 3 The value of percent of control at 10^−7 M was more than 60% or the value of IC50 was more than 200 nM.)

**Q.** `C[C@@H](NC(=O)c1ccccc1C(=O)N[C@H]1CC[C@@H](Nc2cc(N(C)C)c3ccccc3n2)CC1)c1cccc2ccccc12` [compound 737] was tested. Which class did it give?
**A.** 3 (Class 3 The value of percent of control at 10^−7 M was more than 60% or the value of IC50 was more than 200 nM.)

**Q.** How did the class turn out when `C[C@H](C(=O)N[C@H]1CC[C@@H](Nc2cc(N(C)C)c3ccccc3n2)CC1)c1cccc(C(=O)c2ccccc2)c1` [compound 738] was run?
**A.** 3 (Class 3 The value of percent of control at 10^−7 M was more than 60% or the value of IC50 was more than 200 nM.)

**Q.** With `C[C@@H](c1ccccc1)N(C(=O)c1ccccc1C(=O)N[C@H]1CC[C@@H](Nc2cc(N(C)C)c3ccccc3n2)CC1)[C@@H](C)c1ccccc1` [compound 739] as the molecule, how does the class read?
**A.** 3 (Class 3 The value of percent of control at 10^−7 M was more than 60% or the value of IC50 was more than 200 nM.)

**Q.** Which class does the source give for `C[C@H](C(=O)N[C@H]1CC[C@@H](Nc2cc(N(C)C)c3ccccc3n2)CC1)c1ccc(-c2ccccc2)c(F)c1` [compound 740] here?
**A.** 3 (Class 3 The value of percent of control at 10^−7 M was more than 60% or the value of IC50 was more than 200 nM.)

**Q.** For `CN(C)c1cc(N[C@H]2CC[C@@H](NC(=O)CCC(=O)c3cccs3)CC2)nc2ccccc12` [compound 745], which class is on record?
**A.** 3 (Class 3 The value of percent of control at 10^−7 M was more than 60% or the value of IC50 was more than 200 nM.)

**Q.** For `CN(C)c1cc(N[C@H]2CC[C@@H](NC(=O)CCCc3cccs3)CC2)nc2ccccc12` [compound 746], which class is on record?
**A.** 3 (Class 3 The value of percent of control at 10^−7 M was more than 60% or the value of IC50 was more than 200 nM.)

**Q.** How did the class turn out when `CN(C)c1cc(N[C@H]2CC[C@@H](NC(=O)COc3c(Cl)cc(Cl)cc3Cl)CC2)nc2ccccc12` [compound 747] was run?
**A.** 2 (Class 2: The value of percent of control at 10^−7 M was from 40% to 60% or the value of IC′50 was from 50 nM to 200 nM.)

**Q.** Which class does the source give for `CN(C)c1cc(N[C@H]2CC[C@@H](NC(=O)Cc3c[nH]c4ccc(OCc5ccccc5)cc34)CC2)nc2ccccc12` [compound 748] here?
**A.** 3 (Class 3 The value of percent of control at 10^−7 M was more than 60% or the value of IC50 was more than 200 nM.)

**Q.** Which class does the source give for `CN(C)c1cc(N[C@H]2CC[C@@H](NC(=O)c3ccccc3C(=O)c3cccc4ccccc34)CC2)nc2ccccc12` [compound 749] here?
**A.** 3 (Class 3 The value of percent of control at 10^−7 M was more than 60% or the value of IC50 was more than 200 nM.)

**Q.** `COc1ccc(C(=O)N[C@H]2CC[C@@H](Nc3cc(N(C)C)c4ccccc4n3)CC2)cc1OCc1ccccc1` [compound 750] was tested. Which class did it give?
**A.** 2 (Class 2: The value of percent of control at 10^−7 M was from 40% to 60% or the value of IC′50 was from 50 nM to 200 nM.)

**Q.** With `Cc1c(C(=O)N[C@H]2CC[C@@H](Nc3cc(N(C)C)c4ccccc4n3)CC2)cc(-c2ccccc2)n1-c1ccccc1` [compound 751] as the molecule, how does the class read?
**A.** 3 (Class 3 The value of percent of control at 10^−7 M was more than 60% or the value of IC50 was more than 200 nM.)

**Q.** Which class does the source give for `Cc1c(C(=O)N[C@H]2CC[C@@H](Nc3cc(N(C)C)c4ccccc4n3)CC2)cc(-c2ccccc2)n1CCSCc1c(F)cccc1Cl` [compound 752] here?
**A.** 3 (Class 3 The value of percent of control at 10^−7 M was more than 60% or the value of IC50 was more than 200 nM.)

**Q.** Which class does the source give for `CN(C)c1cc(N[C@H]2CC[C@@H](NC(=O)c3c4ccccc4cc4ccccc34)CC2)nc2ccccc12` [compound 753] here?
**A.** 3 (Class 3 The value of percent of control at 10^−7 M was more than 60% or the value of IC50 was more than 200 nM.)

**Q.** For `CN(C)c1cc(N[C@H]2CC[C@@H](NC(=O)c3ccccc3Oc3ccccc3)CC2)nc2ccccc12` [compound 754, N-(cis-4-{[4-(dimethylamino)quinolin-2-yl]amino}cyclohexyl)-2-phenoxybenzamide], which class is on record?
**A.** 2 (Class 2: The value of percent of control at 10^−7 M was from 40% to 60% or the value of IC′50 was from 50 nM to 200 nM.)

**Q.** How did the class turn out when `CN(C)c1cc(N[C@H]2CC[C@@H](NC(=O)c3ccccc3-c3ccccc3)CC2)nc2ccccc12` [compound 755] was run?
**A.** 3 (Class 3 The value of percent of control at 10^−7 M was more than 60% or the value of IC50 was more than 200 nM.)

**Q.** For `CN(C)c1cc(N[C@H]2CC[C@@H](NC(=O)CC(c3ccccc3)c3ccccc3)CC2)nc2ccccc12` [compound 756], which class is on record?
**A.** 3 (Class 3 The value of percent of control at 10^−7 M was more than 60% or the value of IC50 was more than 200 nM.)

**Q.** With `CN(C)c1cc(N[C@H]2CC[C@@H](NC(=O)c3cc(-c4ccccc4)nc4ccccc34)CC2)nc2ccccc12` [compound 757, N-(cis-4-{[4-(dimethylamino)quinolin-2-yl]amino}cyclohexyl)-2-phenylquinoline-4-carboxamide] as the molecule, how does the class read?
**A.** 2 (Class 2: The value of percent of control at 10^−7 M was from 40% to 60% or the value of IC′50 was from 50 nM to 200 nM.)

**Q.** How did the class turn out when `C[C@H](NC(=O)c1ccccc1C(=O)N[C@H]1CC[C@@H](Nc2cc(N(C)C)c3ccccc3n2)CC1)c1ccccc1` [compound 758] was run?
**A.** 3 (Class 3 The value of percent of control at 10^−7 M was more than 60% or the value of IC50 was more than 200 nM.)

**Q.** `Cc1ccc(C(=O)c2ccccc2C(=O)N[C@H]2CC[C@@H](Nc3cc(N(C)C)c4ccccc4n3)CC2)cc1` [compound 759] was tested. Which class did it give?
**A.** 3 (Class 3 The value of percent of control at 10^−7 M was more than 60% or the value of IC50 was more than 200 nM.)

**Q.** With `CN(C)c1cc(N[C@H]2CC[C@@H](NC(=O)c3ccccc3COc3ccccc3)CC2)nc2ccccc12` [compound 760] as the molecule, how does the class read?
**A.** 3 (Class 3 The value of percent of control at 10^−7 M was more than 60% or the value of IC50 was more than 200 nM.)

**Q.** For `CN(C)c1cc(N[C@H]2CC[C@@H](NC(=O)Cc3sc(-c4ccccc4)nc3-c3ccc(Cl)cc3)CC2)nc2ccccc12` [compound 761], which class is on record?
**A.** 3 (Class 3 The value of percent of control at 10^−7 M was more than 60% or the value of IC50 was more than 200 nM.)

**Q.** Which class does the source give for `Cc1ccc(S(=O)(=O)n2ccc(C(=O)N[C@H]3CC[C@@H](Nc4cc(N(C)C)c5ccccc5n4)CC3)c2)cc1` [compound 762] here?
**A.** 3 (Class 3 The value of percent of control at 10^−7 M was more than 60% or the value of IC50 was more than 200 nM.)

**Q.** For `CN(C)c1cc(N[C@H]2CC[C@@H](NC(=O)c3ccc(-c4cccc([N+](=O)[O-])c4)o3)CC2)nc2ccccc12` [compound 763, N-(cis-4-{[4-(dimethylamino)quinolin-2-yl]amino}cyclohexyl)-5-(3-nitrophenyl)-2-furamide], which class is on record?
**A.** 1 (Class 1: The value of percent of control at 10^−7 M was less than 40% or the value of IC50 was less than 50 nM.)

**Q.** `CN(C)c1cc(N[C@H]2CC[C@@H](NC(=O)c3scc(S(C)(=O)=O)c3Cl)CC2)nc2ccccc12` [compound 764] was tested. Which class did it give?
**A.** 3 (Class 3 The value of percent of control at 10^−7 M was more than 60% or the value of IC50 was more than 200 nM.)

**Q.** Which class does the source give for `CSc1sc(C(=O)N[C@H]2CC[C@@H](Nc3cc(N(C)C)c4ccccc4n3)CC2)c(Cl)c1S(=O)(=O)C(C)C` [compound 765] here?
**A.** 3 (Class 3 The value of percent of control at 10^−7 M was more than 60% or the value of IC50 was more than 200 nM.)

**Q.** Which class does the source give for `CSc1sc(C(=O)N[C@H]2CC[C@@H](Nc3cc(N(C)C)c4ccccc4n3)CC2)c(I)c1S(=O)(=O)C(C)C` [compound 766] here?
**A.** 3 (Class 3 The value of percent of control at 10^−7 M was more than 60% or the value of IC50 was more than 200 nM.)

**Q.** With `CN(C)c1cc(N[C@H]2CC[C@@H](NC(=O)c3csc([N+](=O)[O-])c3)CC2)nc2ccccc12` [compound 767, N-(cis-4-{[4-(dimethylamino)quinolin-2-yl]amino}cyclohexyl)-5-nitrothiophene-3-carboxamide] as the molecule, how does the class read?
**A.** 1 (Class 1: The value of percent of control at 10^−7 M was less than 40% or the value of IC50 was less than 50 nM.)

**Q.** With `CN(C)c1cc(N[C@H]2CC[C@@H](NC(=O)c3cc([N+](=O)[O-])cn3C)CC2)nc2ccccc12` [compound 768, N-(cis-4-{[4-(dimethylamino)quinolin-2-yl]amino}cyclohexyl)-1-methyl-4-nitro-1H-pyrrole-2-carboxamide] as the molecule, how does the class read?
**A.** 1 (Class 1: The value of percent of control at 10^−7 M was less than 40% or the value of IC50 was less than 50 nM.)

**Q.** For `CN(C)c1cc(N[C@H]2CC[C@@H](NC(=O)c3cn(S(=O)(=O)c4ccccc4)c4ccccc34)CC2)nc2ccccc12` [compound 769], which class is on record?
**A.** 3 (Class 3 The value of percent of control at 10^−7 M was more than 60% or the value of IC50 was more than 200 nM.)

**Q.** How did the class turn out when `CN(C)c1cc(N[C@H]2CC[C@@H](NC(=O)c3ccc([N+](=O)[O-])cc3)CC2)nc2ccccc12` [compound 770, N-(cis-4-{[4-(dimethylamino)quinolin-2-yl]amino}cyclohexyl)-4-nitrobenzamide] was run?
**A.** 1 (Class 1: The value of percent of control at 10^−7 M was less than 40% or the value of IC50 was less than 50 nM.)

**Q.** With `COc1cc([N+](=O)[O-])ccc1C(=O)N[C@H]1CC[C@@H](Nc2cc(N(C)C)c3ccccc3n2)CC1` [compound 771, N-(cis-4-{[4-(dimethylamino)quinolin-2-yl]amino}cyclohexyl)-2-methoxy-4-nitrobenzamide] as the molecule, how does the class read?
**A.** 2 (Class 2: The value of percent of control at 10^−7 M was from 40% to 60% or the value of IC′50 was from 50 nM to 200 nM.)

**Q.** `CN(C)c1cc(N[C@H]2CC[C@@H](NC(=O)c3ccc(C(F)(F)F)c(F)c3)CC2)nc2ccccc12` [compound 772, N-(cis-4-{[4-(dimethylamino)quinolin-2-yl]amino}cyclohexyl)-3-fluoro-4-(trifluoromethyl)benzamide] was tested. Which class did it give?
**A.** 1 (Class 1: The value of percent of control at 10^−7 M was less than 40% or the value of IC50 was less than 50 nM.)
